Measured values taken from ChEMBL document CHEMBL3085727 (J Med Chem, 2013).
Activity calls are given as the source filed them. No cut-off for these calls is given here.

How the values were obtained:
[1] = organism: Homo sapiens; assay: Selectivity ratio of Ki for delta opioid receptor (unknown origin) to Ki for mu opioid receptor (unknown origin)
[2] = organism: Homo sapiens; assay: Selectivity ratio of Ki for mu opioid receptor (unknown origin) to Ki for kappa opioid receptor (unknown origin)
[3] = organism: Homo sapiens; assay: Selectivity ratio of Ki for delta opioid receptor (unknown origin) to Ki for kappa opioid receptor (unknown origin)
[4] = target: T1, Mu-type opioid receptor (Homo sapiens, UniProt P35372); assay: Agonist activity at mu opioid receptor (unknown origin) expressed in CHO cell membranes assessed as stimulation of [35S]-GTPgammaS binding after 1.5 hrs relative to DAMGO; format: functional
T1 sequence (P35372 whole entry): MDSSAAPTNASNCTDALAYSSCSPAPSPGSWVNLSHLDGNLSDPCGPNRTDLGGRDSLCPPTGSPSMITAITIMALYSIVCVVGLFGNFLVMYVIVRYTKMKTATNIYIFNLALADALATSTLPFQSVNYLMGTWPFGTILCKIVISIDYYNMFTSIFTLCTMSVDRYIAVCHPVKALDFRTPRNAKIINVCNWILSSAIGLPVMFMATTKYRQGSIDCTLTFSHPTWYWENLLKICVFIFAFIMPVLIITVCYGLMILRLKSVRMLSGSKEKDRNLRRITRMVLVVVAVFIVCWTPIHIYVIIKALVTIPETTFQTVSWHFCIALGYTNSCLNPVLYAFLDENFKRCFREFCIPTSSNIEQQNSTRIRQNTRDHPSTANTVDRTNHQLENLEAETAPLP

[5] = organism: Homo sapiens; assay: Selectivity ratio of Ki for human kappa opioid receptor to Ki for human mu opioid receptor
[6] = organism: Homo sapiens; assay: Selectivity ratio of Ki for human delta opioid receptor to Ki for human mu opioid receptor
[7] = organism: Homo sapiens; assay: Selectivity ratio of Ki for kappa opioid receptor (unknown origin) to Ki for mu opioid receptor (unknown origin)
[8] = target: T2, Kappa-type opioid receptor (Homo sapiens, UniProt P41145); assay: Agonist activity at kappa opioid receptor (unknown origin) expressed in CHO cell membranes assessed as stimulation of [35S]-GTPgammaS binding after 1.5 hrs relative to U50488; format: functional
T2 sequence (P41145 whole entry): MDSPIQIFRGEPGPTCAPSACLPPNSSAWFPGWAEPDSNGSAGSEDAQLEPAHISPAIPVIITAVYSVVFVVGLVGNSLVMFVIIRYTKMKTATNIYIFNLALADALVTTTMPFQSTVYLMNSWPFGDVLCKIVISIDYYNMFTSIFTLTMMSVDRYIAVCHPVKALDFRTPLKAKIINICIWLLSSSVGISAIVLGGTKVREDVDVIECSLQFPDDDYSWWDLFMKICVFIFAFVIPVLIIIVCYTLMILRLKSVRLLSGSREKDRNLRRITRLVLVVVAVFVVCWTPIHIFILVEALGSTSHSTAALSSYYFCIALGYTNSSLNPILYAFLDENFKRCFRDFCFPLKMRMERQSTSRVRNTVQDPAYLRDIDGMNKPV

[9] = system: Mus musculus; assay: Reduction of morphine-induced antinociceptive activity in sc dosed Swiss-Webster mouse assessed as dose required to antagonize morphine effect by warm-water tail-flick assay; format: functional
[10] = system: Mus musculus; assay: Induction of withdrawal symptoms in chronic morphine-exposed Swiss-Webster mouse assessed as decrease in escape jumps at 30 mg/kg, sc measured over 20 mins; format: organism-based; design: dose 30 mg/kg, route subcutaneous; details: in vivo
[11] = target: T1, Mu-type opioid receptor; assay: Agonist activity at mu opioid receptor (unknown origin) expressed in CHO cell membranes assessed as stimulation of [35S]-GTPgammaS binding at 10 uM after 1.5 hrs relative to DAMGO; format: functional
[12] = system: Mus musculus; assay: Induction of withdrawal symptoms in chronic morphine-exposed Swiss-Webster mouse assessed as decrease in wet dog shakes at 3 to 30 mg/kg, sc measured over 20 mins; format: organism-based; design: dose 3-30 mg/kg, route subcutaneous; details: in vivo
[13] = system: Mus musculus; assay: Induction of withdrawal symptoms in chronic morphine-exposed Swiss-Webster mouse assessed as decrease in escape jumps at 3 to 10 mg/kg, sc measured over 20 mins; format: organism-based; design: dose 3-10 mg/kg, route subcutaneous; details: in vivo
[14] = target: Delta-type opioid receptor (Homo sapiens) (UniProt P41143); assay: Agonist activity at delta opioid receptor (unknown origin) expressed in CHO cell membranes assessed as stimulation of [35S]-GTPgammaS binding after 1.5 hrs relative to SNC80; format: functional
Delta-type opioid receptor (Homo sapiens), sequence (P41143 whole entry): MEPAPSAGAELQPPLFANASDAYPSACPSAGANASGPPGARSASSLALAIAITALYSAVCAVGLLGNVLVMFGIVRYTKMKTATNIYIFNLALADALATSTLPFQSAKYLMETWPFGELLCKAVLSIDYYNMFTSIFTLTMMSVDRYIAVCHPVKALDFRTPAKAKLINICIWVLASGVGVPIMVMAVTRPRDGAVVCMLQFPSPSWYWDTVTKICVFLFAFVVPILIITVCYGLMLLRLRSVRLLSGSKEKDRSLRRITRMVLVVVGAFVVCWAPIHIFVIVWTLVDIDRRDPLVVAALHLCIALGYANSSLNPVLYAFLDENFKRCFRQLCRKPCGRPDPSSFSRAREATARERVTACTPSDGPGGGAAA

[15] = system: Mus musculus; assay: Antinociceptive activity in Swiss-Webster mouse up to 30 mg/kg, sc by warm-water tail-flick assay; format: functional, organism-based; design: dose 30 mg/kg
[16] = system: Mus musculus; assay: Induction of withdrawal symptoms in chronic morphine-exposed Swiss-Webster mouse assessed as decrease in wet dog shakes at 10 to 30 mg/kg, sc measured over 20 mins; format: organism-based; design: dose 10-30 mg/kg, route subcutaneous; details: in vivo
[17] = system: Mus musculus; assay: Induction of withdrawal symptoms in chronic morphine-exposed Swiss-Webster mouse assessed as decrease in wet dog shakes at 3 mg/kg, sc measured over 20 mins; format: organism-based; design: dose 3 mg/kg, route subcutaneous; details: in vivo
[18] = system: Mus musculus; assay: Induction of withdrawal symptoms in chronic morphine-exposed Swiss-Webster mouse assessed as decrease in escape jumps at 1 mg/kg, sc measured over 20 mins; format: organism-based; design: dose 1 mg/kg, route subcutaneous; details: in vivo
[19] = system: Mus musculus; assay: Induction of withdrawal symptoms in chronic morphine-exposed Swiss-Webster mouse assessed as decrease in wet dog shakes at 1 mg/kg, sc measured over 20 mins; format: organism-based; design: dose 1 mg/kg, route subcutaneous; details: in vivo
[20] = target: T2, Kappa-type opioid receptor; assay: Partial agonist activity at human kappa opioid receptor expressed in CHO cells assessed as stimulation of [35S]-GTPgammaS binding after 3 hrs by liquid scintillation counting analysis; format: functional, cell-based
[21] = system: Mus musculus; assay: Induction of withdrawal symptoms in chronic morphine-exposed Swiss-Webster mouse assessed as decrease in escape jumps at 10 to 30 mg/kg, sc measured over 20 mins; format: organism-based; design: dose 10-30 mg/kg, route subcutaneous; details: in vivo

Row | Compound | Ratio Ki [1] | Ratio Ki [2] | Ratio Ki [3] | Emax [4] [%] | Ratio Ki [7] | further results
1 | O=C(N[C@@]12CCC(=O)[C@@H]3Oc4c(O)ccc5c4[C@@]31CCN(CC1CC1)[C@@H]2C5)c1ccc2ccccc2c1 | 1.7 | 19 | 32 | 16.5 | – | –
2 | O=C(N[C@@]12CCC(=O)[C@@H]3Oc4c(O)ccc5c4[C@@]31CCN(CC1CC1)[C@@H]2C5)c1ccncc1 | 13 | 2.5 | 33 | 7.7 | – | –
3 | Cc1ccc(/C=C/C(=O)O[C@@]23CCC(=O)[C@@H]4Oc5c(O)ccc6c5[C@@]42CCN(CC2CC2)[C@@H]3C6)cc1 | – | – | – | – | – | Ratio Ki [5]: 15; Ratio Ki [6]: 31
4 | COc1cccc2c1[C@]13CCN(CC4CC4)[C@H](C2)[C@]1(OC)CCC(=O)C3 [CYPRODIME] | 39 | – | – | – | 10 | –
5 | O=C(O[C@@]12CCC(=O)[C@@H]3Oc4c(O)ccc5c4[C@@]31CCN(CC1CC1)[C@@H]2C5)c1ccc2ccccc2c1 | 4 | – | 19 | – | 0.21 | –
6 | Cc1ccc(/C=C/C(=O)N[C@@]23CCC(=O)[C@@H]4Oc5c(O)ccc6c5[C@@]42CCN(CC2CC2)[C@@H]3C6)cc1 | – | – | – | – | – | Ratio Ki [5]: 3; Ratio Ki [6]: 1
7 | O=C(O[C@@]12CCC(=O)[C@@H]3Oc4c(O)ccc5c4[C@@]31CCN(CC1CC1)[C@@H]2C5)c1ccccc1 | – | – | > 17 | – | 4.7 | –
8 | Cl.O=C(N[C@@]12CCC(=O)[C@@H]3Oc4c(O)ccc5c4[C@@]31CCN(CC1CC1)[C@@H]2C5)c1cc2ccccc2cn1 | 7.2 | 13 | 93 | – | – | Emax [8]: 16.8%; Activity [9]: 0.87 mg/kg; Activity [10]: Toxic; Emax [11]: 2.8%; Activity [12]: Toxic; Activity [13]: Non-toxic; Emax [14]: 23.8%; Activity [15]: inactive
9 | O=C(N[C@@]12CCC(=O)[C@@H]3Oc4c(O)ccc5c4[C@@]31CCN(CC1CC1)[C@@H]2C5)c1cnc2ccccc2c1 | 1.3 | 8.7 | 11 | 15.8 | – | –
10 | Cl.O=C(N[C@@]12CCC(=O)[C@@H]3Oc4c(O)ccc5c4[C@@]31CCN(CC1CC1)[C@@H]2C5)c1ccccn1 | 63 | 4.2 | 263 | – | – | Emax [8]: 24.9%; Activity [9]: 0.25 mg/kg; Activity [16]: Toxic; Activity [17]: Non-toxic; Activity [10]: Toxic; Emax [11]: 0.9%; Activity [13]: Non-toxic; Emax [14]: 8.6%; Activity [15]: inactive
11 | O=C(CNC(=O)c1ccccn1)N[C@@]12CCC(=O)[C@@H]3Oc4c(O)ccc5c4[C@@]31CCN(CC1CC1)[C@@H]2C5 | 1.2 | 2.1 | 2.6 | 11.8 | – | –
12 | O=C(O[C@@]12CCC(=O)[C@@H]3Oc4c(O)ccc5c4[C@@]31CCN(CC1CC1)[C@@H]2C5)c1cnc2ccccc2c1 | 304 | – | 5.5 | 22 | 55 | –
13 | O=C(O[C@@]12CCC(=O)[C@@H]3Oc4c(O)ccc5c4[C@@]31CCN(CC1CC1)[C@@H]2C5)c1ccncc1 | 73 | – | 8.2 | – | 8.8 | –
14 | O=C1CC[C@@]2(O)[C@H]3Cc4ccc(O)c5c4[C@@]2(CCN3CC2CC2)[C@H]1O5 [NALTREXONE] | – | – | – | – | – | Activity [18]: Toxic; Activity [19]: Toxic
15 | O=C(CCc1ccccn1)N[C@@]12CCC(=O)[C@@H]3Oc4c(O)ccc5c4[C@@]31CCN(CC1CC1)[C@@H]2C5 | 29 | 1.9 | 54 | 12.7 | – | –
16 | O=C(O[C@@]12CCC(=O)[C@@H]3Oc4c(O)ccc5c4[C@@]31CCN(CC1CC1)[C@@H]2C5)c1cccnc1 | 107 | – | 3.6 | – | 30 | –
17 | O=C(Cc1ccccn1)N[C@@]12CCC(=O)[C@@H]3Oc4c(O)ccc5c4[C@@]31CCN(CC1CC1)[C@@H]2C5 | 14 | 1.5 | 21 | 78 | – | –
18 | Oc1cccc2c1O[C@H]1CCC[C@H]3CN(CC4CC4)CC[C@@]231 | – | – | – | – | – | EC50 [20]: 2.7 nM
19 | O=C(O[C@@]12CCC(=O)[C@@H]3Oc4c(O)ccc5c4[C@@]31CCN(CC1CC1)[C@@H]2C5)c1ccccn1 | 838 | – | 4.6 | – | 182 | –
20 | O=C(N[C@@]12CCC(=O)[C@@H]3Oc4c(O)ccc5c4[C@@]31CCN(CC1CC1)[C@@H]2C5)c1ccccc1 | 13 | 36 | 477 | 5.8 | – | –
21 | O=C(N[C@@]12CCC(=O)[C@@H]3Oc4c(O)ccc5c4[C@@]31CCN(CC1CC1)[C@@H]2C5)c1ccc2ccccc2n1 | 1.7 | 35 | 58 | 34.4 | – | –
22 | Cl.O=C(N[C@@]12CCC(=O)[C@@H]3Oc4c(O)ccc5c4[C@@]31CCN(CC1CC1)[C@@H]2C5)c1cccnc1 | 53 | 4.7 | 249 | – | – | Emax [8]: 35.3%; Activity [9]: 0.55 mg/kg; Activity [16]: Toxic; Emax [11]: 5.1%; Emax [14]: 10.3%; Activity [15]: inactive; Activity [21]: Toxic
23 | C=CCN1CC[C@]23c4c5ccc(O)c4O[C@H]2C(=O)CC[C@@]3(O)[C@H]1C5 [NALOXONE] | – | – | – | – | – | Activity [18]: Toxic; Activity [19]: Toxic
24 | O=C(O[C@@]12CCC(=O)[C@@H]3Oc4c(O)ccc5c4[C@@]31CCN(CC1CC1)[C@@H]2C5)c1ccc2ccccc2n1 | 16 | – | 0.34 | – | 47 | –
